# Assay results: PMC12627007, “HIV nucleocapsid proteins as targets for novel 1,2-benzisothiazol-3(2H)-one benzenesulfonamides: synthesis and antiretroviral activity” (Frontiers in Microbiology, 2025)
# Like-named read-outs stand apart in the source and are kept apart here.
# How the values were obtained:
# HIV-2 CBL-20 strain = assay: Inhibition of HIV-2-induced cytopathogenicity in C8166 cells (MTT); assay type: cell-based
# Experimental: (§1) HIV-1IIIB and HIV-2 CBL-20 strains were obtained from the supernatants of persistently infected H9/IIIB and CEM cells, respectively. HIV-1 and HIV-2 stock solutions had titres of 4.5 × 10^7 and 1.4 × 10^6 50% cell culture infectious doses (CCID50)/ml, respectively. […] The K103R + V179D + P225H mutant (EFVR) was derived from an IIIB strain passaged in MT-4 cells in the presence of Efavirenz (up to 2 μM). N119, A17 and EFV^R stock solutions had titres of 1.2 × 10^8, 2.1 × 10^7, and 4.0 × 10^7 CCID50/ml, respectively.
# (§2) The activity of the test compounds against the replication of HIV-1 wt and mutant strains (N119, A17, EFV^R, AZT^R, MDR, SAQ^R) and HIV-2 wt in acutely infected cells was based on the inhibition of virus-induced cytopathogenicity in MT-4 and C8166 cells, respectively. Briefly, 50 μL of culture medium containing 1 × 10^4 cells was added to each well of flat-bottom microtitre trays containing 50 μL of culture medium with or without different serial concentrations of test compounds. Then, 20 μL of an HIV suspension (containing the appropriate amount of CCID50 required to cause complete cytopathogenicity on day 4, final multiplicity of infection [m.o.i.] 0.01) was added.
# cell-free HIV-2 = assay: Virucidal activity against cell-free HIV-2 (Reed-Muench titration); assay type: cell-based
# Experimental: (§3) Cell-free, high-titre HIV-1 and HIV-2 stock solutions were exposed to the test compounds for 2 h at 0 °C or 37 °C. At the end of incubation, residual infectivity was determined using the Reed–Muench end-point titration method, as described below.
# (§4) Titration was performed in C8166 cells using the standard limiting dilution method (dilution 1:2, four replica wells/dilution) in 96-well plates.
# cell-free HIV-1 = assay: Virucidal activity against cell-free HIV-1 (Reed-Muench titration); assay type: cell-based; conditions: for Infectivity inactivation of cell-free HIV-1: 37 °C
# Experimental: as §3, §4
# HIV-1 wt = assay: Time of addition assay in MT-4 cells; assay type: cell-based; conditions: compound 6 15 μM, EFV 0.05 μM; MT-4, m.o.i. 5
# Experimental: 2 × 10^4 MT-4 cells were infected for 1 h at 20 °C with HIV-1 at a high multiplicity of infection (m.o.i. = 5), corresponding to 5 cell culture infectious dose 50 per cell (CCID50/cell).
# as §4
# Virus yields were determined using the Reed–Muench method. Bars are mean values, and whiskers are standard deviations (SD) of three independent experiments.
# HIV-1 N119 (Y181C) = assay: Inhibition of virus-induced cytopathogenicity in MT-4 cells, NNRTI-resistant mutant N119; assay type: cell-based; conditions: for EC50: Human immunodeficiency virus 1, MT4, read-out: EC50 N119
# Experimental: as §1, §2
# [1] = target: T1, HIV-1 reverse transcriptase (Human immunodeficiency virus type 1 group M subtype B, UniProt P04585); assay: Reverse transcriptase enzyme assay; assay type: biochemical
# T1 construct: recombinant HIV-1 reverse transcriptase
# [2] = system: HIV-1 SAQR (L10F, G48V, L90M); assay: Inhibition of virus-induced cytopathogenicity in MT-4 cells, PRI-resistant mutant SAQR; assay type: cell-based; conditions: for EC50: Human immunodeficiency virus 1, MT4, read-out: EC50 SAQR
# Experimental: as §1, §2
# [3] = system: HIV-1 A17 (K103N + Y181C); assay: Inhibition of virus-induced cytopathogenicity in MT-4 cells, NNRTI-resistant mutant A17; assay type: cell-based; conditions: for EC50: Human immunodeficiency virus 1, MT4, read-out: EC50 A17
# Experimental: as §1, §2
# [4] = system: HIV-1 MDR (74V, 41L, 106A, 215Y); assay: Inhibition of virus-induced cytopathogenicity in MT-4 cells, NRTI-resistant mutant MDR; assay type: cell-based; conditions: for EC50: Human immunodeficiency virus 1, MT4, read-out: EC50 MDR
# Experimental: as §1, §2
# [5] = system: HIV-1 EFVR (K103R + V179D + P225H); assay: Inhibition of virus-induced cytopathogenicity in MT-4 cells, NNRTI-resistant mutant EFVR; assay type: cell-based; conditions: for EC50: Human immunodeficiency virus 1, MT4, read-out: EC50 EFVR
# Experimental: as §1, §2
# [6] = target: T2, HIV-1 recombinant integrase (rIN) (Human immunodeficiency virus type 1 group M subtype B, UniProt P04585); assay: Integrase (rIN) enzyme assays: 3'-processing and strand transfer; assay type: biochemical; conditions: for IC50: recombinant HIV-1 integrase
# T2 construct: HIV-1 recombinant integrase (rIN); made in house
# From the text: ^aCompound concentration (µM) required to reduce the amount of 3’-end-labeled duplex of 21/19mers substrates, in 3’-processing and strand-transfer reactions catalyzed by the recombinant HIV-1 integrase, by 50%. Data represent mean values for three independent determinations.
# HIV-1 IIIB strain = assay: microbe, parasite or virus in culture; assay type: cell-based; conditions: for EC50: Human immunodeficiency virus 1, IIIB
# Experimental: as §1, §2
# [7] = microbe, parasite or virus in culture; assay type: cell-based, HIV-1; conditions: all tested strains (HIV-1 wt, mutants, HIV-2)
# Experimental: as §1, §2
# [8] = system: HIV-1 AZTR (67N, 70R, 215F, 219Q); assay: Inhibition of virus-induced cytopathogenicity in MT-4 cells, NRTI-resistant mutant AZTR; assay type: cell-based; conditions: for EC50: Human immunodeficiency virus 1, MT4, read-out: EC50 AZTR
# Experimental: as §1, §2
# [9] = system: chronically HIV-1-infected H9 cells / uninfected C8166 cells; assay: Syncytium formation in chronically infected H9/C8166 cocultures (entry assay); assay type: cell-based; conditions: 36 h
# Experimental: Chronically infected H9 cells were washed and cocultured with uninfected C8166 cells (ratio 1:500) in the absence or presence of test inhibitors. Following 36 h of incubation at 37 °C, cocultures were monitored by optical microscopy, syncytia were counted, and those found in drug-treated cocultures were reported as a percentage of those counted in untreated cocultures ([Wang et al., 2004]).
# In this assay, syncytia were formed as a result of the interaction of env-encoded glycoproteins (present on the outer membrane of chronically infected H9 cells) with the CD4 of cocultured C8166 cells.
# Figure 3 Comparative activity of compound 6 (30 μM) and dextran sulphate (0.5 μM) in preventing syncytium formation in chronically infected H9/C8166 cocultures. The H9/C8166 ratio was […]. The cells were incubated for 36 h at 37 °C. Data represent mean values of at least three independent determinations of syncytial numbers using an optical microscope. Bars are mean values, and whiskers are standard deviations (SD) of at least three independent experiments.
# [10] = Cytotoxicity in mock-infected MT-4 cells (MTT method); assay type: cell-based; conditions: human
# Experimental: as §2, with “added. After incubation at 37 °C, cell viability was determined using the […] (MTT) method ([Pauwels et al., 1988]). The cytotoxicity of the test compounds was evaluated in parallel with their antiviral activity through the viability of mock-infected, treated cells, as monitored by the MTT method and described elsewhere ([Morellet et al., 1994]).” for “added.”
# [11] = Human immunodeficiency virus 2, C8166, read-out: EC50 HIV-2
# [12] = Human immunodeficiency virus 2, C8166, read-out: EC50 HIV-2 (Table 2)
# [13] = 0 °C, compound 6 80 μM, AMPH-B 100 μM
# [14] = MT4, read-out: EC50 HIV-1 (Table 2)
compound,measurement,setting,value
"O=c1c2ccccc2sn1NS(=O)(=O)c1ccccc1 [Compound 6, N-(3-Oxo-1,2-benzisothiazol-2(3H)-yl)benzenesulfonamide]",EC50,HIV-2 CBL-20 strain; [11],7 ± 0.7 µM
same,EC50,HIV-2 CBL-20 strain; [12],7 ± 0.7 µM
same,Selectivity Index (SI = CC50/EC50) HIV-2,HIV-2 CBL-20 strain; in round brackets,12
same,"Effect on HIV-2 infectivity, incubation at 0 °C",cell-free HIV-2; [13],failed to significantly affect HIV-2 infectivity
same,Infectivity inactivation of cell-free HIV-2,"cell-free HIV-2; 25 and 12.5 μM, 37 °C",only marginal or no effects
same,Inactivation of HIV-2 virion infectivity,"cell-free HIV-2; 37 °C, compound 6 80 μM, AMPH-B 100 μM",approximately 2 log10
same,Infectivity inactivation of cell-free HIV-2,"cell-free HIV-2; 100 and 50 μM, 37 °C",strongly inactivated the infectivity
same,"Effect on HIV-1 infectivity, incubation at 0 °C",cell-free HIV-1; [13],failed to affect HIV-1 infectivity
same,Infectivity inactivation of cell-free HIV-1,cell-free HIV-1; 25 and 12.5 μM,only marginal or no effects
same,Infectivity inactivation of cell-free HIV-1,cell-free HIV-1; 100 and 50 μM,strongly inactivated the infectivity
same,Inactivation of HIV-1 infectivity,"cell-free HIV-1; 2 h at 37 °C, compound 6 80 μM, AMPH-B 100 μM",more than 3 log10
same,Infectious virus yield when compound present only during the 1-h infection period,HIV-1 wt,infectious virus yield similar to that of the untreated infected controls
same,Time of addition p.i. up to which the compound still prevents virus yield,HIV-1 wt,up to 12 h
same,EC50,HIV-1 N119 (Y181C),7 ± 1.5 µM
same,Selectivity Index (SI = CC50/EC50) N119,HIV-1 N119 (Y181C); in round brackets,12
same,Inhibition of recombinant HIV-1 RT,[1]; at concentrations of 30 μM,none of the benzenesulfonamides were active
same,IC50,[1]; virion-associated RT,> 30 µM
same,EC50,[2],8 ± 0.7 µM
same,Selectivity Index (SI = CC50/EC50) SAQR,[2]; in round brackets,10
same,EC50,[3],8 ± 1 µM
same,Selectivity Index (SI = CC50/EC50) A17,[3]; in round brackets,10
same,EC50,[4],4 ± 1.5 µM
same,Selectivity Index (SI = CC50/EC50) MDR,[4]; in round brackets,21
same,EC50,[5],7 ± 2 µM
same,Selectivity Index (SI = CC50/EC50) EFVR,[5]; in round brackets,12
same,Inhibition of recombinant HIV-1 IN,[6]; at concentrations of 30 μM,none of the benzenesulfonamides were active
same,IC50,[6]; read-out: IC50 3'-Processing,> 30 µM
same,IC50,[6]; read-out: IC50 Strand-transfer,> 30 µM
same,EC50,"HIV-1 IIIB strain; MT4, read-out: EC50 HIV-1",8 ± 3 µM
same,EC50,HIV-1 IIIB strain; [14],8 ± 3 µM
same,Selectivity Index (SI = CC50/EC50) HIV-1,"HIV-1 IIIB strain; IIIB strain, in round brackets",10
same,Selectivity Index (SI) against all tested strains,[7],around 10
same,EC50,[8],6 ± 0.7 µM
same,Selectivity Index (SI = CC50/EC50) AZTR,[8]; in round brackets,14
same,Interference with syncytia formation / very early events (adsorption/attachment/fusion),[9]; 30 μM,did not interfere
same,CC50 at 4 days,[10],86 ± 4 µM
"O=C1Nc2ccc(Cl)cc2[C@@](C#CC2CC2)(C(F)(F)F)O1 [EFV, efavirenz, reference compound]",EC50,HIV-2 CBL-20 strain; [11],> 20 µM
same,EC50,HIV-2 CBL-20 strain; [12],> 20 µM
same,Infectious virus yield when compound present only during the 1-h infection period,HIV-1 wt,infectious virus yield similar to that of the untreated infected controls
same,Time of addition p.i. up to which the compound still prevents virus yield,HIV-1 wt,≤ 4 h
same,EC50,HIV-1 N119 (Y181C),0.008 ± 0.003 µM
same,EC50,[2],0.007 ± 0.005 µM
same,EC50,[3],0.3 ± 0.009 µM
same,EC50,[4],0.004 µM
same,EC50,[5],3 ± 1 µM
same,EC50,"HIV-1 IIIB strain; MT4, read-out: EC50 HIV-1",0.002 ± 0.0003 µM
same,EC50,HIV-1 IIIB strain; [14],0.002 ± 0.0003 µM
same,EC50,[8],0.002 ± 0.0003 µM
same,CC50 at 4 days,"[10]; MT-4, MTT method",30 ± 5 µM
dextran sulphate [reference compound],Prevention of syncytia formation,[9]; 0.5 μM,98%
